The results in this text go back to ChEMBL document CHEMBL1201862, “PubChem BioAssay data set” (2004).

Assay [1] is described as follows: intracellular Trypanosoma cruzi inhibitors in host cells – cell-based, plate reader, cherry-pick samples, set 3, dose response (AID 651818).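 Further: compounds incubated with infected cells for about four days.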 It counts as functional.
Assay [2] can be described thus: inhibitors of PGC1a acetylation in cells, dose response, cell-based, cherry-picked samples (AID 720514).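 Further: potency may reflect raised or lowered acetylation signal.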 The format is functional.
The test system of assay [3] is HeLa. Nature of the assay: HeLa cell cytotoxicity, dose response, cytotoxicity control, ATP luminescence, cherry-pick samples (AID 687004). It counts as functional, cell-based. The following applies: Homo sapiens.
The test system of assay [4] is HEK293. Nature of the assay: HEK293T cell cytotoxicity, dose response, cytotoxicity control, ATP luminescence, cherry-pick samples (AID 687005).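 Further: cells exposed to compound for 48 hours.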 It counts as functional, cell-based. The settings on record: Homo sapiens.
Assay [5] is described as follows: HEK293 Cytotoxicity Assay Measured in Cell-Based System Using Plate Reader - 7071-01_Inhibitor_Dose_CherryPick_Activity_Set2. It counts as functional.
Assay [6] concerns the target Endoplasmic reticulum aminopeptidase 1 (Homo sapiens, UniProt Q9NZ08). Nature of the assay: ERAP1 aminopeptidase inhibitors, dose response, biochemical, cherry-pick, set 2, plate reader (AID 743314).
Assay [7] relates to HEK293. Nature of the assay: cells. It counts as functional, cell-based. The following applies: Homo sapiens.
Assay [8] deals with T1, Nuclear receptor subfamily 0 group B member 1 (Homo sapiens, UniProt P51843).
T1 sequence (P51843 whole entry): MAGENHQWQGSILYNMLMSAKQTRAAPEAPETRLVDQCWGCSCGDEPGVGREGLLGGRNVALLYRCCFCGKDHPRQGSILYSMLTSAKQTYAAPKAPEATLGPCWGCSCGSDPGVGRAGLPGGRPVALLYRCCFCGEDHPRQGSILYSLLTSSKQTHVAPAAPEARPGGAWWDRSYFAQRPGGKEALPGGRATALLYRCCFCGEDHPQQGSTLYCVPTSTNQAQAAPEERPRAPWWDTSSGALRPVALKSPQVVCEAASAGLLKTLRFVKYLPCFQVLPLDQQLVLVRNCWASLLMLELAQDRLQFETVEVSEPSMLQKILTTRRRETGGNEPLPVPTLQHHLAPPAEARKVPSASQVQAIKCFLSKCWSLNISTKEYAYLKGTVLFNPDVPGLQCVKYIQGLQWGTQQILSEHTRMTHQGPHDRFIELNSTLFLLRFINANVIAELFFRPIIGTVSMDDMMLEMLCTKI
Nature of the assay: Luminescence-based cell-based high throughput dose response assay for inhibitors of the orphan nuclear receptor subfamily 0, group B, member 1 (DAX1; NR0B1). [Related pubchem assays (depositor defined):AID504766, AID504790]. It counts as functional.

Assay [9] in a line: Luminescence-based cell-based high throughput dose response assay to identify activators of the DAF-12 from the parasite S. stercoralis (ssDAF-12). The format is functional.
For assay [10], the target named is T2, Oxysterols receptor LXR-beta (Homo sapiens, UniProt P55055).
T2 sequence (P55055 whole entry): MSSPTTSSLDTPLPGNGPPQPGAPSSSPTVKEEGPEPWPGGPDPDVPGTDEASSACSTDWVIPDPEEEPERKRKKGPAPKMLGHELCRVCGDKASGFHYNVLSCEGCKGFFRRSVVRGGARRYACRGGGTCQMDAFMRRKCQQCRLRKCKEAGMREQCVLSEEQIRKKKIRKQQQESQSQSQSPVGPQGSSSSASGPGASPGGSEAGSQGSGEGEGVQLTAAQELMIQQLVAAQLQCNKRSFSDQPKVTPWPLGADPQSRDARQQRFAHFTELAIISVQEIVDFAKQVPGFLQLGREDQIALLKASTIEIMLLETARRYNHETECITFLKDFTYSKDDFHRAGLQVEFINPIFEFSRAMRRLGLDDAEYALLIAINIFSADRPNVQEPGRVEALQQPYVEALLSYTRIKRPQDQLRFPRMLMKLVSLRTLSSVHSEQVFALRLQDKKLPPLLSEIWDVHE
Nature of the assay: LXR agonists, Gal4 luciferase reporter, dose response, counter-screen for ssDAF-12 agonist project, cell-based, luminescence, HEK293, S. stercoralis campaign (AID 720737). The format is functional. The settings on record: read-out: IC50 (the source's name). On the technique in general: A reporter such as luciferase makes a cellular process visible.

The nature of assay [11]: P. falciparum 3D7-ScDHODH growth inhibitors, dose response, SYBR Green, dry powder samples (AID 1159570).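 Further: parasite growth measured after 72 hours of compound exposure.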 The format is functional, cell-based.
The nature of assay [12]: HepG2 cell cytotoxicity, dose response, cytotoxicity control, plate reader, dry powder samples (AID 1159569).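 Further: inhibitor potency with signal falling toward the positive control level.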 It counts as functional, cell-based.
Assay [13] is described as follows: P. falciparum Dd2 growth inhibitors, dose response, SYBR Green, cherry-picked samples (AID 1159567). It counts as functional, cell-based.
The nature of assay [14]: P. falciparum Dd2 growth inhibitors, dose response, SYBR Green, dry powder samples (AID 1159566).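 Further: potency for growth inhibition with lower SYBR green DNA signal.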 It counts as functional, cell-based.
A short description of assay [15]: P. falciparum ATP4 D1247Y mutant growth inhibitors, dose response, NITD609-resistant line, SYBR Green, dry powder (AID 1159571).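 Further: parasites synchronized at ring stage by sorbitol before testing.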 The format is functional, cell-based.
A short description of assay [16]: HepG2 cell cytotoxicity, dose response, cytotoxicity control, cherry-picked samples (AID 1159577). It counts as functional, cell-based.
The nature of assay [17]: Concentration-dependent survival of SW480 colon cancer line, luminescence detection with CellTiter-Glo, half-maximal inhibitory concentration (AID 1117338). It counts as functional.
Assay [18] can be described thus: RKO cell viability reduction, dose response, CellTiter-Glo luminescence (AID 1117322). It counts as functional. (In general: Cellular ATP, detected with luciferase, serves as a proxy for viable cell number.)
A short description of assay [19]: cytotoxicity toward HCT116 cells – cell-based, CellTiter-Glo luminescence, IC50, dose response (AID 1117332). The format is functional. The settings on record: HCT-116.
Assay [20] in a line: SNU-C1 cell viability reduction, dose response, CellTiter-Glo luminescence (AID 1117323). It counts as functional, cell-based.
A short description of assay [21]: cytotoxicity toward Colo320 cells – cell-based, CellTiter-Glo luminescence, IC50, dose response (AID 1117334). The format is functional. The settings on record: COLO 320.
Assay [22] in a line: cytotoxicity toward HT-29 cells – cell-based, CellTiter-Glo luminescence, IC50, dose response (AID 1117330). The format is functional.
Assay [23] is described as follows: CellTiter-Glo luminescent dose response of DLD-1 viability loss (AID 1117352). The format is functional.

Each structure is given as a SMILES string. Activity calls are given as the source filed them.

Sequence of Endoplasmic reticulum aminopeptidase 1 (Q9NZ08 whole entry): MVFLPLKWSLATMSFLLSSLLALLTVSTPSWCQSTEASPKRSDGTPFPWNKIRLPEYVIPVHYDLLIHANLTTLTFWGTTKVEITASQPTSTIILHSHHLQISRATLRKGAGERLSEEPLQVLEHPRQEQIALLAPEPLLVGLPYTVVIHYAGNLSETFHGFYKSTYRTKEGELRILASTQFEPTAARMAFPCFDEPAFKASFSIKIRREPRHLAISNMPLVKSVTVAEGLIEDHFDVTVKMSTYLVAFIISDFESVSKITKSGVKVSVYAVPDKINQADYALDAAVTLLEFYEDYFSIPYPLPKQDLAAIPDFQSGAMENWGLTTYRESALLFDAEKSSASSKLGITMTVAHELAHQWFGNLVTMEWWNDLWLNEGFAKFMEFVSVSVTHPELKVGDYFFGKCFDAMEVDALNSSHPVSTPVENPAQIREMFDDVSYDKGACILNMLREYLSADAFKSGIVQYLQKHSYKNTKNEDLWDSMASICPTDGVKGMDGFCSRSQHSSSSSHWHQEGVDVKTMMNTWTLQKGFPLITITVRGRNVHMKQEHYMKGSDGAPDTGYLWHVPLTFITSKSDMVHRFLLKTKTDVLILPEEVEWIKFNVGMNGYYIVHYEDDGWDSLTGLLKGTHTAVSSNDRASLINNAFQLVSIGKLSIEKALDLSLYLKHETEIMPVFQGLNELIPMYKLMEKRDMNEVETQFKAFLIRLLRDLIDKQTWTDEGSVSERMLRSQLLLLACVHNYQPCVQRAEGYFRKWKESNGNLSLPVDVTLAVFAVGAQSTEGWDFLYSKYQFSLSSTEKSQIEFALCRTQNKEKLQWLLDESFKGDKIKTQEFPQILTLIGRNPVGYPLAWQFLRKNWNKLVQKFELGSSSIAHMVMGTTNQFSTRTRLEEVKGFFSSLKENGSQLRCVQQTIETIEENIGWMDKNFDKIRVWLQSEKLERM

Take `C[C@H](CO)N1C[C@H](C)[C@H](CN(C)Cc2ccc(Oc3ccccc3)cc2)Oc2c(NC(=O)Nc3ccc4c(c3)OCO4)cccc2C1=O`: the AC50 – broadly, the midpoint of the concentration-response curve, whichever way the signal moves – in assay [1] was 3.78 µM (active); in assay [2] it was 16.9 µM (active).
For `C[C@@H]1CN([C@H](C)CO)S(=O)(=O)c2ccc(C#CC3CC3)cc2O[C@H]1CN(C)CC1CCOCC1`, the AC50 was > 52 µM (inactive) in assay [3], 15.4 µM (active) in assay [4] and 15.4 µM (active) in assay [5].
Regarding `CO[C@@H](CN(C)Cc1cc(F)ccc1F)[C@@H](C)CN([C@H](C)CO)S(=O)(=O)c1ccc(F)cc1`, the figures for the AC50 in [3], in assay [4] and in assay [5] were > 52 µM (inactive), 28.4 µM (active) and 28.4 µM (active), respectively.
As for `COc1cccc(S(=O)(=O)N(C)C[C@@H]2Oc3ncccc3C(=O)N([C@H](C)CO)C[C@@H]2C)c1`, the AC50 in assay [6] is 9.81 µM (active).
With `C/C(=N\Nc1cccc2cccnc12)c1ccccc1O`, the IC50 in [7], in [8] and in [9] was > 67.5 µM (inactive) in each case. Moreover, the EC50 in assay [10] is > 67.5 µM (inactive).
For the compound `COc1ccc2c3c([nH]c2c1)[C@@H](CO)N(C(=O)CN(C)C)CC31CCN(CC2CCCCC2)CC1`, the AC50 in assay [11] was 0.137 µM (active); in [12] it was 23.7 µM (active); in assay [13] it was 0.904 µM (active); in assay [14], 0.361 µM (active); in assay [15], 0.731 µM (active).
Regarding `C/C=C/c1ccc([C@@H]2[C@@H]3CN(Cc4cccnc4)C[C@H]2N3)cc1`, the AC50 in [11] is 1.41 µM (active); in assay [12] it was 24.2 µM (active); in assay [13], 1.41 µM (active); in assay [14] it was 1.27 µM (active); in assay [16], > 39 µM (inactive); in [15] it was 1.83 µM (active).
Consider `C/C(=C(/OCCOc1ccc(Cl)cc1)c1ccc(Cl)cc1Cl)n1ccnc1` [OMOCONAZOLE], for which the IC50 (in general, the concentration that inhibits the measured activity by half) was 8.46 µM (inactive) in assay [17]; > 6.67 µM (inactive) in [18]; > 6.67 µM (inactive) in assay [19]; 2.35 µM (active) in [20]; 5.86 µM (inactive) in assay [21]; > 6.67 µM (inactive) in [22]. Also, the IC50 in [23] was 4.18 µM (active).
